Tests used:
[1] = test system: phosphorylated Akt1 (Ser473) in MCF7 cells; assay: Cellular PI3K/Akt pathway assay (pAkt-ELISA); format: cell-based; settings: Homo sapiens, β-Heregulin stimulation, 48 h, read-out: Akt pathway inhibition (pAkt-ELISA): IC50
Protocol: In order to study the cellular activity of the compounds according to the invention, an ELISA-based assay has been established. The assay is based on a Sandwich ELISA kit (PathScan™ Phospho-Akt1 (Ser473); Cell Signaling, USA; #7160).
The assay detects endogenous levels of phosphorylated Akt1 protein. A phospho-Akt (Ser473) antibody (Cell Signaling, USA; #9271) has been coated onto the microwells. After incubation with cell lysates, the phosphorylated Akt protein is captured by the coated antibody. Following extensive washing, Akt1 monoclonal antibody (Cell Signaling, USA; #2967) is added to detect the captured phospho-Akt1 protein. HRP-linked anti-mouse antibody (Cell Signaling, USA; #7076) is then used to recognize the bound detection antibody. HRP substrate (=TMB; Cell Signaling, USA; #7160) is added to develop colour. The magnitude of optical density for this developed color is proportional to the quantity of phosphorylated Akt1 protein.
MCF7 cells (ATCC HTB-22) are seeded into 96 well fate bottom plates at a density of 10000 cells/well. 24 hours after seeding the cells are starved using estrogen-free medium (IMEM including 0.1% charcoal treated FCS). […] To stimulate Akt phosphorylation, β-Heregulin (20 ng/ml) is added in parallel to the compounds. Wells containing unstimulated control cells (no β-Heregulin stimulation) are incubated with or without the diluted compound. Wells containing untreated control cells (no compound) are filled with medium containing 0.5% v:v DMSO and are with P-Heregulin or are not stimulated.
Cells are harvested under nondenaturating conditions and lysed with brief sonification in 1× cell lyses buffer (20 mM Tris (pH7.5), 150 mM NaCl, 1 mM ethylene diaminetetraacetate (EDTA), 1 mM ethylene glycolbis-(2-aminoethyl)-N,N,N′,N′-tetraacetic acid (EGTA), 1% Triton X-100, 2.5 mM sodium pyrophosphate, 1 mM β-glycerolphosphate, 1 mM Na3VO4, 1 μg/ml leupeptin). The lysate is microcentrifuged for 10 minutes at 4° C. and the supernatant is transferred to a new tube. 100 μl of sample diluent (0.1% tween-20, 0.1% sodium azide in 20× PBS) are added to a microcentrifuge tube and 100 μl of cell lysate are transferred into the tube and vortexed. 100 μl of each diluted cell lysate are added to the appropriate well (phospho-Akt (Ser473) antibody coated microwells; Cell Signaling, USA; #7160) and incubated overnight at 4° C. The plates are washed 4 times with 1× wash buffer (1% tween-20, 0.33% thymol, in 20×PBS). Then 100 μl of detection antibody (Akt1 (2H10) monoclonal detection antibody; Cell Signaling, USA; #2967) are added to each well and incubated for 1 h at 37° C. The washing procedure is repeated between each step. […] The absorbance is read at 450 nm (Wallac Victor2; Perkin Elmer, USA) within 30 minutes after adding STOP solution. […]

[2] = biological target: T1, full-length Akt1 (active) (Homo sapiens, UniProt P31749); assay: Biochemical Akt1 assay (full-length Akt1 active, flashplate, Crosstide); settings: 100 nM ATP, Crosstide substrate; read-out: Akt1 inhibition (full-length Akt1, active): IC50
T1 construct: recombinant full-length human Akt1, containing N-terminal His6 tag; His6 (N); GST (N); purchased Upstate, UK #14-276; host or cells: baculovirus infected Sf21 insect cells
Source text: For the biochemical Akt1 assay recombinant full-length human Akt1, containing N-terminal His6 tag is cloned and expressed in baculovirus infected Sf21 insect cells. Akt1 is activated with GST-MAPKAP-K2 and PDK1, and repurified on Ni2+/NTA-agrose and glutathioneagarose (Upstate, UK; #14-276).
In order to study the inhibition of Akt1 (full-length version) according to the invention, a flashplate-based assay has been developed.
The full-length Akt1 assay is a biochemical assay using Akt1 N-terminally fused to GST and co-expressed with PDKI in insect cells. The Akt1 assay is run in 96 well plates by incubating 500 ng/well GST-Akt1, 1 μM Crosstide (N-terminally biotinylated synthetic peptide (KGSGSGRPRTSSFAEG) Upstate, #12-385) as substrate, 10 μl of test compound (test compounds were dissolved as 10 mM solutions in dimethylsulfoxide (DMSO) and subsequently diluted) and 100 nM ATP (including ^33P-ATP) in 100 μl of reaction buffer (50 mM HEPES, pH7,5; 3 mM MgCl2; 3 mM MnCl2; 3 μM Na-Orthovanadat; 1 mM DTT; 1 μg/ml PEG8000) for 60 minutes at 30° C. in 96 well microtiter plates. The reactions are terminated by adding 100 μl stopping buffer (5M NaCl, 35 mM EDTA pH 8.0) for 5 minutes. 190μl of the reaction mixture are transferred into streptavidin-coated Flashplates (Perkin Elmer, #SMP-103) and incubated for further 30 minutes at room temperature. The plates are washed 3 times by using washing buffer (0.9% NaCl). Relying on the incorporation of ^33P into the peptide substrate crosstide, the detection is based on the specific binding of the biotinylated peptide to the streptavidin-coated surface of scintillator-coated flash plates (NEN, USA; #SMP-103). This phosphorylation is measured by counting the plate for 60 sec. using a plate reader (Wallac Microbeta; Perkin Elmer, USA).

T1 sequence (P31749 whole entry): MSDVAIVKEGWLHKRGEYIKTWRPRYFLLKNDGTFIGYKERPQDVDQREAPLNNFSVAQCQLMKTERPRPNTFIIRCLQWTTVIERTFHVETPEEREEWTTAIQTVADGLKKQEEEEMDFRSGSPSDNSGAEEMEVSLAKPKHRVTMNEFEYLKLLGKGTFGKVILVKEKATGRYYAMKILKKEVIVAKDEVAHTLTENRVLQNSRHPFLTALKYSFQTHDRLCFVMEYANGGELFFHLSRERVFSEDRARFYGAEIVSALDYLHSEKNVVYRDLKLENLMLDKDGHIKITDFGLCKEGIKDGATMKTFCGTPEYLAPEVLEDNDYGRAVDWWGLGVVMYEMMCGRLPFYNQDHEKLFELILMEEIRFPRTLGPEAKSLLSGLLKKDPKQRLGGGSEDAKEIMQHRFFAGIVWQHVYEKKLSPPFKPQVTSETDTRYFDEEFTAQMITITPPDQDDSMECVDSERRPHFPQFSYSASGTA

Row | IC50 [1] | IC50 [2] | Compound
1 | ≤ 6 µM | ≤ 4.03 µM | NCCCC(=O)Nc1ccc(Nc2nc(-c3cccc4c3oc3ccccc34)cc3ccnn23)cc1 [Example 24, 4-Amino-N-[4-(5-dibenzofuran-4-yl-pyrazolo[1,5-c]pyrimidin-7-ylamino)-phenyl]-butyramide]
2 | ≤ 6 µM | ≤ 4.03 µM | COc1cccc(-c2ccc(-c3cc4ccnn4c(Nc4ccc(NC(=O)c5ccc(CN)cc5)cc4)n3)cc2)c1 [Example 59, 4-Aminomethyl-N-{4-[5-(3′-methoxy-biphenyl-4-yl)-pyrazolo[1,5-c]pyrimidin-7-ylamino]-phenyl}-benzamide]
3 | ≤ 6 µM | ≤ 4.03 µM | O=C(Nc1cccc(Nc2nc(-c3cccc4c3oc3ccccc34)cc3ccnn23)c1)c1ccc2c(c1)CCNC2 [Example 63, 1,2,3,4-Tetrahydro-isoquinoline-6-carboxylic acid [3-(5-dibenzofuran-4-yl-pyrazolo[1,5-c]pyrimidin-7-ylamino)-phenyl]-amide]
4 | ≤ 6 µM | ≤ 4.03 µM | COc1cccc(-c2ccc(-c3cc4c(Br)cnn4c(Nc4ccc(NC(=O)c5ccc(CN)cc5)cc4)n3)cc2)c1 [Example 87, 4-Aminomethyl-N-{4-[3-bromo-5-(3′-methoxy-biphenyl-4-yl)-pyrazolo[1,5-c]pyrimidin-7-ylamino]-phenyl}-benzamide]

— patent US7745446B2, “Pyrazolo[1,5-c]pyrimidines” (Bayer Schering Pharma Aktiengesellschaft, priority 2004, dated 2010)
